The results in this text go back to patent US20250009844A1, “MATURATION OF MUCOSAL DEFENSE AND GUT/LUNG FUNCTION IN THE PRETERM INFANT” (Novozymes A/S, priority 2017, published 2025).

Assay [1] can be described thus: Prophylactic high fat diet murine model, weight change (Example 1). The format is in vivo, mice. Particulars: HFD plus hBD-2 1,2 mg per kg per day in diet vs HFD reference group; 10 week study period; p=0.0028. The text has this:
The overall experimental design is shown in FIG. 1, top panel “Prophylactic study”. Mice: Mice were housed in trios, 4 cages per group. Feed intake was registered daily just before lights were turned off at 6 pm. Individual mice were subjected to experimental procedures in altered order both group and cage wise. Mice were kept at room temperature under a 12-hour light/dark cycle at SPF standard conditions. Diets: For dosing, the average weight was estimated to be 25 grams per mouse. Mice eat approximately 3 grams of feed per mouse per day.
Treatment regime: Mice were fed either a high fat diet (HFD) or a low fat (LF) control diet. The HFD contained 4 subgroups; a) hBD-2, b) HD5, c) hBD-2/HD5 and d) standard HFD without supplementation of defensins. Defensin concentration was 1,2 mg hBD-2 per kg mouse per day. HD5 was given in equimolar concentration to hBD-2.

Assay [2] concerns BALB/c mice. Briefly: Murine model of acute graft versus host disease, oral hBD-2 versus cyclosporine (Example 12). The class given is in vivo. How it is done:
Treatment regime: 20 female BALB/c mice were irradiated with 4.5 Gy (2×498 sec) at intervals of at least 4 hours on day 0. Bone marrow was harvested: hind limbs harvested from 2 female WT C57BL/6 mice aseptically. Skeletal muscle was removed and epiphysis cut away. Lumen of bone flushed with PBS and cells pelleted and taken up. Harvest of T-cells: spleens from 2 female WT C57BL/6 mice were meshed through a […] cell strainer into a PBS filled dish. Cells were taken up in PBS and transferred into a 50 mL falcon tube and spun down. Cells were taken up in 1 mL PBS and 20 μL of CD4 microbead +20 μL CD8 microbeads per spleen added for incubation for 20 min at 4 degrees C. Cells were washed with PBS and applied to MACS separation in order to positively select CD4+ and CD8+ cells. Positively selected T-cells were counted and taken up. Transplantation: directly after the second irradiation, all WT BALB/c recipient mice were injected with 5×1.000.000 BM cells (50 μL) i.v. into the retroorbital venous plexus under isoflurane anesthesia. 20 BALB/c mice were treated with 1.2 mg of hBD2/kg BW/day (n=7); 50 mg cyclosporine/kg BW on days 0, 3, 6 and 9 (n=7) or 100 uL PBS per day vial oral gavage (n=6) from day 0-10.
The mice were weighed at regular intervals during the study and survival was monitored for 90 days.

For assay [3], the system named is BALB/c mice. Briefly: Therapeutic intervention in murine house dust mite/Freund's complete adjuvant driven model of allergic asthma, histopathology and cytokines (Example 7). The format is in vivo. Particulars: for Histological inflammation of lung tissue: vs HDM challenged vehicle. The protocol:
Treatment regime: Female 7-10 weeks old BALB/c mice randomly allocated into 4 study groups one day prior to study start were subcutaneously (SC) sensitized to house dust mite (100 μg HDM in 200 μL saline plus Freund's complete adjuvant in 0.9% saline). Mice were intranasally (IN) challenged with HDM on day 14 (HDM 25 μg in 50 μL of saline). hBD-2 was administered IN or orally (0.4 mg/kg TID IN; 0.4 mg/kg TID orally, 50 μL phosphate buffered saline) on day 14. The initial dose was administered 60 minutes prior to challenge, and the subsequent doses approximately 6 hours apart (FIG. 3, groups 1-4)).
Blood sampling: All terminal blood samples were collected via jugular vein bleeds. Blood was sampled to Li-heparin tubes, put on ice and immediately centrifuged at 4° C. Plasma was separated and stored at −80° C. until the potential SCFA analysis. Lung tissue sampling: The lungs were exposed and excised by gently opening the thorax and by cutting down either side of the sternum and ribs and trimming back. […]
Cellular influx (mononuclears, eosinophils, neutrophils) was assessed semi-quantitatively on H&E stained slides separately for peri-bronchial/bronchiolar and perivascular space as follows: • 0 absent • 1 few scattered inflammatory cells • 2 larger aggregates • 3 marked accumulation of cells
Overall score for inflammation was calculated as the sum of all individual scores. Goblet cell metaplasia, separately at a level of large airways and distal airways, was assessed at PAS-stained slides as follows: • 0 no mucus containing cells along basement membrane • 1 few positive cells along basement membrane with less than 75% of the cytoplasm stained • 2 few positive cells along basement membrane with more than 75% of the cytoplasm stained • 3 numerous positive cells along basement membrane with less than 75% of the cytoplasm stained • 4 numerous positive cells along basement membrane with more than 75% of the cytoplasm stained […]

No end group written: not given here.

In the case of “human beta defensin 2 (GIGDPVTCLKSGAICHPVFCPRRYKQIGTCGLPGTKCCKKP; ends and bridges not checked; cysteine pairing not given here; listed as Homo sapiens) [hBD-2]”, the Weight gain entry in assay [1] is reported as “gained significantly less weight than the HFD reference group”. The Mortality result in assay [2] (7 mice oral hBD-2 for 10 days, p=0.03) is reported as “statistically significant reduction of mortality”. For the same substance, in assay [2] (compared with the PBS treated mice), the “Weight loss following bone marrow transplantation” value is on record as “lost statistically significantly less weight”. The “Animals that had died by day 90” value in assay [2] (hBD2 1.2 mg/kg BW/day day 0-10 (n=7), cyclosporine 50 mg/kg BW on days 0, 3, 6 and 9 (n=7), PBS n=6, all but one died) was found to be 1. Also, the “Histological inflammation of lung tissue” value in assay [3] (intranasal 0.4 mg/kg TID on day 14) and in assay [3] (oral 0.4 mg/kg TID on day 14) was “effectively inhibited the increase in histological inflammation of lung tissue” in each case. Besides, the “IL-5 level in lung tissue homogenate” value in assay [3] (oral administration) was “Significant effects”.
